Data from paper PMC10531346, “Structural Similarities and Overlapping Activities among Dihydroflavonol 4-Reductase, Flavanone 4-Reductase, and Anthocyanidin Reductase Offer Metabolic Flexibility in the Flavonoid Pathway” (International Journal of Molecular Sciences, 2023).
Like-named read-outs stand apart in the source and are kept apart here.

Assays:
PvDFRa WT = PvDFRa WT (Panicum virgatum, UniProt A0A8T0SQV2); experiment: Enzyme kinetic assay, wild-type PvDFRa; type: biochemical; details: for substrate inhibition at higher substrate concentrations: KI much greater than Km, could not be quantified
Protocol: (§1) Kinetic Assays of PvDFRa, SbDFR3, mutant PvDFRa, and SbFNRs: DFR was purified to the same purity as used in crystallization. Enzymatic assay followed the methodology previously reported with small changes. A solution of 0.1 M potassium phosphate at pH 7.0 was utilized, and substrate concentration was varied from 5 µM to 800 µM. The reaction was initiated with 0.05 mg enzyme in a total reaction volume of 200 µL. […] The reaction proceeded for 15 min. at 25 °C and was terminated by the addition of 600 µL 95:5 (v/v) n-butanol:HCl. […] The reactions were centrifuged for 15 min. at 14,000× g and the supernatant was used to determine product concentrations with a GENESYS™ 10S UV-Vis Spectrophotometer (Thermo Scientific, Waltham, MA, USA). The absorbances of cyanidin delphinidin and pelargonidin were measured at 550, 550, and 528 nm, respectively. The concentrations were determined based on calibrations with reference compounds (Figure S12). […] Data analysis was conducted utilizing GraphPad Prism 8.0.2 using linear regression to model the appropriate model. Error in each data point is shown utilizing the standard deviation.

PvDFRa [1] = molecular target: T1, PvDFRa (Panicum virgatum, UniProt A0A8T0SQV2); experiment: Isothermal titration calorimetry, PvDFRa; type: binding; details: for ∆H / ∆S: ITC, 298 K
Protocol: In order to obtain thermodynamic parameters for the association, isothermal titration calorimetry (ITC) for PvDFRa was performed (Figure S8, Table 2).
Isothermal Titration Calorimetry: Purified PvDFR was dialyzed to a buffer containing 50 mM Bis-Tris, 50 mM Tricine (pH 6.5), 200 mM NaCl and 2.5% (v/v) glycerol. Substrates were dissolved in the same buffer used for enzyme dialysis. Analysis was conducted utilizing a Microcal ITC 200 (Malvern). […] A total of 22 injections were made, each with a volume of 2 uL. Data analysis was conducted utilizing Origin Software 7 and modeled to the appropriate nonlinear regression.

PvDFRa Q242A = PvDFRa Q242A (Panicum virgatum, UniProt A0A8T0SQV2, Q242A); experiment: Enzyme kinetic assay, PvDFRa Q242A mutant; type: biochemical; details: NADPH 2 mM
Protocol: Site-directed mutagenesis was conducted using primers generated with the QuikChange Primer Design (Agilent Santa Clara, CA USA).
as §1

SbDFR3 [2] = molecular target: T2, SbDFR3 (Sorghum bicolor, UniProt C5XVF8); experiment: Enzyme kinetic assay, SbDFR3; details: NADPH 2 mM
Protocol: as §1

SbFNR1 = SbFNR1 (Sorghum bicolor, UniProt C5YGL7); experiment: SbFNR1 activity assay (dihydroflavonols, flavanones, anthocyanidins); type: biochemical; details: for product yield compared to PvDFRa and SbDFR3: flavanones, long incubation
SbFNR2 = SbFNR2 activity assay (dihydroflavonols, flavanones, anthocyanidins); type: biochemical, Sorghum bicolor; details: for activity of SbFNR2 against the substrate: in words
SbANR = SbANR activity assay (dihydroflavonols, flavanones, anthocyanidins); type: biochemical, Sorghum bicolor; details: in words
[3] = system: O=C1C[C@@H](c2ccc(O)cc2)Oc2cc(O)cc(O)c21; experiment: purified protein, by the assay type; details: other: NADPH 2 mM
[4] = system: O=C1c2c(O)cc(O)cc2OC(c2ccc(O)c(O)c2)[C@H]1O; experiment: purified protein, by the assay type; details: other: NADPH 2 mM
[5] = system: O=C1c2c(O)cc(O)cc2O[C@H](c2cc(O)c(O)c(O)c2)[C@H]1O; experiment: purified protein, by the assay type; details: other: NADPH 2 mM
[6] = system: O=C1c2c(O)cc(O)cc2O[C@H](c2ccc(O)cc2)[C@H]1O; experiment: purified protein, by the assay type; details: other: NADPH 2 mM
PvDFRa [7] = molecular target: T1, PvDFRa; experiment: PvDFRa activity against anthocyanidins (ANR activity); type: biochemical; details: anthocyanidin reduction
Protocol: (§2) To measure any overlapping specificity among FNR, DFR, and ANR for anthocyanidins, their activity against cyanidin, pelargonidin, and delphinidin were assayed.
(§3) LC-MS was used to analyze the various flavonoids using a Waters Xevo TQ-MS mass spectrometer interfaced with a Waters Acquity UPLC. […] The chromatographic conditions used were based on. The mobile phase used was a binary gradient of water with 0.1% (v/v) formic acid (Solvent A) and methanol with 0.1% formic acid (Solvent B). The solvent flow rate was 0.2 mL min^-1. and the initial solvent composition was 20% B/80% A and was constant for the first minute following sample injection. Gradient elution was accomplished by increasing the ratio of solvent B to solvent A from 20:80 to 65:35 over 10 min. using a linear gradient, and then increased to 100:0 over the next 4 min. The composition was maintained at 100% B for 5 min., returned to 80%A/20%B over the next 3 min., and held at that ratio for the next 3 min. […]
(§4) Appropriate daughter ions to be used for multiple reaction monitoring (MRM) of (-)-epicatechin were identified by infusing standard and recording spectra. The optimum cone voltage and collision energy of epicatechin were also determined in these infusion experiments. […]

SbDFR3 [8] = molecular target: T2, SbDFR3; experiment: SbDFR3 activity against anthocyanidins (ANR activity); type: biochemical; details: anthocyanidin reduction
Protocol: as §2, §3, §4

## NADH
PvDFRa WT; NADH utilized instead of NADPH
  enzyme efficiency with NADH relative to NADPH: 60.55%

## O=C1c2c(O)cc(O)cc2O[C@H](c2cc(O)c(O)c(O)c2)[C@H]1O [DHM, dihydromyricetin]
PvDFRa [1]
  Kd: 21.2 ± 3.26 µM
  ∆H: -9.10 ± 2.45 kcal/mol
  ∆S: −9.14 Cal mol^−1 K^−1
PvDFRa WT
  substrate inhibition at higher substrate concentrations: substrate inhibition was observed
PvDFRa Q242A
  kcat: 0.03788 s⁻¹
SbDFR3 [2]
  kcat: 0.07733 s⁻¹
SbFNR1; in words
  activity of SbFNR1 against the substrate: no significant activity
SbFNR2
  activity of SbFNR2 against the substrate: no significant activity
SbANR
  activity of SbANR against the substrate: no significant activity

## PvDFRa WT (Panicum virgatum)
[3]; pH 7.0, 25 °C, 25.0 °C
  Km: 407.6 ± 223.6 µM
  kcat: 0.0592 s⁻¹
  kcat/Km: 145 M⁻¹ s⁻¹
[4]; pH 7.0, 25 °C, 25.0 °C
  Km: 128.6 ± 14.3 µM
  kcat: 0.0559 s⁻¹
  kcat/Km: 435 M⁻¹ s⁻¹
[5]; pH 7.0, 25 °C, 25.0 °C
  Km: 150.0 ± 56.9 µM
  kcat: 0.0377 s⁻¹
  kcat/Km: 251 M⁻¹ s⁻¹
[6]; pH 7.0, 25 °C, 25.0 °C
  kcat: 0.0121 s⁻¹
  kcat/Km: 63.2 M⁻¹ s⁻¹

## O=C1C[C@@H](c2ccc(O)c(O)c2)Oc2cc(O)cc(O)c21 [Eriodictyol, eriodictyol]
PvDFRa [1]
  Kd: 64.9 ± 11.8 µM
  ∆H: -6.23 ± 0.28 kcal/mol
  ∆S: −1.74 Cal mol^−1 K^−1
PvDFRa WT
  substrate inhibition at higher substrate concentrations: substrate inhibition occurred
PvDFRa WT; NADPH 2 mM
  kcat for flavanones, given for PvDFRa: 0.00206 s⁻¹
PvDFRa WT; NADPH 2 mM, pH 7.0, 25 °C
  Km: 246 ± 224 µM
  kcat: 0.01414 ± 0.00932 s⁻¹
PvDFRa WT; NADPH 2 mM, pH 7.0, 25 °C, listed as eriodictyol
  kcat: 0.01414 s⁻¹
SbDFR3 [2]
  Km: 40.7 ± 31.9 µM
  kcat: 0.00206 ± 0.000183 s⁻¹
SbDFR3 [2]; read-out: Km
  Km: 25.2 µM
SbFNR1
  product yield compared to PvDFRa and SbDFR3: ~ 3%
SbFNR2
  activity of SbFNR2 against the substrate: did not display any activity
SbANR
  activity of SbANR against the substrate: did not display any activity

## SbDFR3 (Sorghum bicolor)
[3]; pH 7.0
  Km: 118.2 ± 14.92 µM
  kcat: 0.0347 ± 0.00145 s⁻¹
  kcat/Km: 294 M⁻¹ s⁻¹
[4]; pH 7.0
  Km: 166.4 ± 28.8 µM
  kcat: 0.0633 s⁻¹
  kcat/Km: 380 M⁻¹ s⁻¹
[5]; pH 7.0
  Km: 118.5 ± 0.2885 µM
  kcat: 0.0773 s⁻¹
  kcat/Km: 653 M⁻¹ s⁻¹

## Oc1cc(O)c2cc(O)c(-c3ccc(O)c(O)c3)[o+]c2c1 [cyanidin]
SbFNR1; anthocyanidin reduction
  efficiency relative to the activity of SbANR: 11.9%
SbFNR2; anthocyanidin reduction
  efficiency relative to the activity of SbANR: 7.4%
PvDFRa [7]
  activity as % of the activity of SbANR: 0.5%
SbDFR3 [8]
  activity as % of the activity of SbANR: 0.9%

## O=C1C[C@@H](c2ccc(O)cc2)Oc2cc(O)cc(O)c21 [Naringenin, naringenin]
PvDFRa [1]
  Kd: 177 ± 25.3 µM
  ∆H: -4.82 ± 0.39 kcal/mol
  ∆S: 0.986 Cal mol^−1 K^−1
PvDFRa WT
  substrate inhibition at higher substrate concentrations: substrate inhibition occurred
PvDFRa WT; NADPH 2 mM
  kcat for flavanones, given for PvDFRa: 0.03473 s⁻¹
PvDFRa WT; NADPH 2 mM, pH 7.0, 25 °C
  kcat: 0.05915 s⁻¹
SbFNR1
  product yield compared to PvDFRa and SbDFR3: ~ 3%
SbFNR2
  activity of SbFNR2 against the substrate: did not display any activity
SbANR
  activity of SbANR against the substrate: did not display any activity

## PvDFRa T143S (Panicum virgatum; T143S)
[4]; pH 7.0
  Km: 19.04 ± 11.21 µM
  kcat: 0.0293 s⁻¹
  kcat/Km: 1540 M⁻¹ s⁻¹
[5]; pH 7.0
  Km: 7.409 ± 0.2465 µM
  kcat: 0.0176 s⁻¹
  kcat/Km: 2380 M⁻¹ s⁻¹
[6]; pH 7.0
  Km: 137.7 ± 36.00 µM
  kcat: 0.00956 s⁻¹
  kcat/Km: 69.3 M⁻¹ s⁻¹
